These results are taken from US8778939B2, “Compounds” (Glaxo Group Limited, priority 2009, dated 2014).

Assay type in all cases: biochemical
Test [1] deals with T1, 6His-Tev-LRRK2 (1326-2527) (Homo sapiens, UniProt Q5S007).
T1 construct: A LRRK2 cDNA encoding residues 1326-2527 was received from Dundee University; made in house; host or cells: Spodoptera frugiperda (Sf9) insect cells, baculovirus
T1 sequence (Q5S007 1326-2527): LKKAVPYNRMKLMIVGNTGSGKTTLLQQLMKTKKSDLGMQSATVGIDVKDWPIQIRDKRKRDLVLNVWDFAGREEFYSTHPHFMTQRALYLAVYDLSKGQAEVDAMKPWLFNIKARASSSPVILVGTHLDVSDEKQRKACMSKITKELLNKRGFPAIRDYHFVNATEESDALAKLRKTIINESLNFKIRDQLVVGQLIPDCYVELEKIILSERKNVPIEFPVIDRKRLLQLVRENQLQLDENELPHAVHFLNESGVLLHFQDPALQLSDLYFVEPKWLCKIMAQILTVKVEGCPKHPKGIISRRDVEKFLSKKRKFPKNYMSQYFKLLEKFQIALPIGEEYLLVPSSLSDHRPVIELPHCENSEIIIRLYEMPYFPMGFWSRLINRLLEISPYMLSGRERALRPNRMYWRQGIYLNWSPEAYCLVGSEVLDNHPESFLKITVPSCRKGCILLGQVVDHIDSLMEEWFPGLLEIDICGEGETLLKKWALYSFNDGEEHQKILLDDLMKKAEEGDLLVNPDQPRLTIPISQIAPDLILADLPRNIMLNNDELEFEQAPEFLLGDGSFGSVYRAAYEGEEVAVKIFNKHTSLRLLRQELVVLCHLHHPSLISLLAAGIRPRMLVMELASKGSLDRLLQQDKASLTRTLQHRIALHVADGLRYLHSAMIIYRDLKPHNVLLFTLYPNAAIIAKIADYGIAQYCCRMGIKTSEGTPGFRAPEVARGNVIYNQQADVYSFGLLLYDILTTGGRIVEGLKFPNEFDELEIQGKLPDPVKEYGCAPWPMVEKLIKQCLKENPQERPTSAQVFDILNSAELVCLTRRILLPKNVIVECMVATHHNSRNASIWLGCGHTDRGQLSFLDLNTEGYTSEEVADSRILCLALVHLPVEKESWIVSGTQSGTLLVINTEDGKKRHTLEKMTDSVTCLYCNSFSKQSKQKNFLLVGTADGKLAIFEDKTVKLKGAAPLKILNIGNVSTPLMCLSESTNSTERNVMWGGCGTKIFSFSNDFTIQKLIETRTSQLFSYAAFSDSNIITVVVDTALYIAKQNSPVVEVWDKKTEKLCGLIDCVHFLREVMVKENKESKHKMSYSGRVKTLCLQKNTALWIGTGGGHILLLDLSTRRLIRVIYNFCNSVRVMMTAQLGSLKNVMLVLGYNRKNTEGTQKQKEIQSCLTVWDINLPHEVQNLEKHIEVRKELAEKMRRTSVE
The test can be described thus: LRRK2 peptide substrate assay. The conditions noted are these: Biotin-LRRKtide peptide substrate, ATP at Km. A digest of the protocol:
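Recombinant 6His-Tev-LRRK2 (1326-2527), 80 nM in enzyme solution, in pH 7.2 Hepes/MgCl2 buffer with DTT; compounds in 1:4 serial dilution from 30 μM top final. Reaction 1-2 h at room temperature, stopped with EDTA; phospho-moesin (Thr558) antibody with Eu/APC TR-FRET detection after 2 h (ex 330, em 620/665 nm).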

Test [2] addresses T1, 6His-Tev-LRRK2 (1326-2527). Description: LRRK2 AlphaScreen desensitised protein substrate assay. A digest of the protocol:
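Purified 6His-Tev-LRRK2 (1326-2527), 80 nM in enzyme solution, in pH 7.2 Hepes buffer with MgCl2 and DTT; compound 1:4 dilutions, top final 30 μM. ATP 2 mM in substrate solution, 20 min at room temperature. Phospho-ERM (Thr567/564/558) detected by AlphaScreen.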
A general note: In Alpha technology, singlet oxygen from a donor bead excites a nearby acceptor bead.

In test [3] the target is T1, 6His-Tev-LRRK2 (1326-2527). The test can be described thus: LRRK2 AlphaScreen protein substrate assay. The conditions noted are these: GST-PS-Moesin (400-577) substrate, ATP at Km; read-out: pIC50 in the LRRK2 alphascreen protein substrate assay (converted). The protocol:
a) 100 nl of a 1:4 serial dilution of test compound with a top final assay concentration of 30 μM is added to certain wells in a low volume 384 well black plate. 100 nl of DMSO is used in certain wells as controls.
b) 3 μl enzyme solution (80 nM purified recombinant 6His-Tev-LRRK2 (1326-2527) in assay buffer: 50 mM Hepes (pH 7.2), 10 mM MgCl2, 150 mM NaCl, 5% glycerol, 0.0025% triton X-100 and 1 mM DTT) is added to certain wells.
Plates are then incubated for a further 1-2 hours at room temperature (incubation time varies depending upon rate and linearity of reaction with differing enzyme batches).
d) 6 μl detection solution (1:250 dilution of AlphaLisa Protein A Acceptor beads (PerkinElmer), 1:64 dilution of AlphaLisa Gluthathione Donor beads (PerkinElmer) and 1:600 dilution (dilution determined on a batch to batch basis) of Phospho-Ezrin (Thr567)/Radixin (Thr564)/Moesin (Thr558) Polyclonal Antibody (New England Biolabs) in a buffer: 50 mM Hepes (pH 7.5), 250 mM NaCl, 60 mM EDTA, 1% PEG and 0.01% Brij 35) is added to each well. Plates are then incubated for a further 2 hours at room temperature in the dark before reading on an EnVision™ plate reader with AlphaScreen HTS turbo option module and AlphaScreen settings. Data is analysed using ActivityBase software (IDBS).

The mark [4] stands for this setting: read-out: pIC50 in the LRRK2 peptide substrate assay (converted).
[5] abbreviates: excess of ATP present (2 mM ATP), read-out: pIC50 in the LRRK2 alphascreen desensitised protein substrate assay (converted).
Where [6] appears, read: mean pIC50, read-out: LRRK2 peptide substrate assay (pIC50) (converted).
Where [7] appears, read: mean pIC50, GST-PS-Moesin (400-577) substrate, 2 mM ATP (excess of ATP present), read-out: LRRK2 alphascreen desensitised protein substrate assay (pIC50) (converted).

Turning to `CN(C)Cc1ccc(OCc2ccccc2)c(C(=O)Nc2cccnc2)c1` [Example 71, 5-[(Dimethylamino)methyl]-2-[(phenylmethyl)oxy]-N-3-pyridinylbenzamide], the IC50 is no more than 0.1 µM in test [1] (setting [4]) and no more than 20 µM in test [2] (setting [5]).
The corresponding values for `O=C(Nc1ccnnc1)c1cc(-c2cn[nH]c2)ccc1OCc1ccc(F)cc1` [Example 92, 2-{[(4-Fluorophenyl)methyl]oxy}-5-(1H-pyrazol-4-yl)-N-4-pyridazinylbenzamide] are no more than 0.01 µM and no more than 20 µM.
As to `COCCn1cc(-c2ccc(OCc3ccc(F)cc3)c(C(=O)Nc3cccnc3)c2)cn1` [Example 130, 2-{[(4-Fluorophenyl)methyl]oxy}-5-{1-[2-(methyloxy)ethyl]-1H-pyrazol-4-yl}-N-3-pyridinylbenzamide], the IC50 in test [1] (setting [4]) is no more than 0.01 µM; in test [1] (setting [6]) it was 0.00316 µM; in test [2] (setting [5]) it was no more than 20 µM; in test [2] (setting [7]), 0.0316 µM.
As for `O=C(Nc1cccnc1)c1cc(-c2ccnc(F)c2)ccc1OCc1ccccc1` [Example 104, 5-(2-Fluoro-4-pyridinyl)-2-[(phenylmethyl)oxy]-N-3-pyridinylbenzamide], the IC50 in test [1] (setting [4]) is no more than 0.01 µM; in test [2] (setting [5]) it was no more than 20 µM.
With `O=C(Nc1cccnc1)c1cc(C(=O)N2CCCC2)ccc1OCc1ccccc1` [Example 37, 2-[(Phenylmethyl)oxy]-N-3-pyridinyl-5-(1-pyrrolidinylcarbonyl)benzamide], the IC50 was no more than 0.1 µM in test [1] (setting [4]) and no more than 20 µM in test [2] (setting [5]).
As to `O=C(Nc1ccnnc1)c1cc(-c2ccncc2)ccc1OCc1ccccc1` [Example 74, 2-[(Phenylmethyl)oxy]-N-4-pyridazinyl-5-(4-pyridinyl)benzamide], the IC50 in test [1] (setting [4]) was no more than 0.01 µM; in test [2] (setting [5]), no more than 20 µM.
With `CN1CCC[C@H]1COc1ccc(OCc2ccccc2)c(C(=O)Nc2cccnc2)c1` [Example 47, 5-({[(2S)-1-Methyl-2-pyrrolidinyl]methyl}oxy)-2-[(phenylmethyl)oxy]-N-3-pyridinylbenzamide], the IC50 was no more than 0.01 µM in test [1] (setting [4]) and no more than 20 µM in test [2] (setting [5]).
Turning to `O=C(Nc1cn[nH]c1)c1cc(Br)ccc1OCc1ccccc1` [Example 51, 5-Bromo-2-[(phenylmethyl)oxy]-N-1H-pyrazol-4-ylbenzamide], the IC50 in test [1] (setting [4]) is no more than 0.1 µM; in test [2] (setting [5]), no more than 20 µM.
Turning to `O=C(Nc1cccnc1)c1cc(C(=O)N2CCOCC2)ccc1OCc1ccccc1` [Example 38, 5-(4-Morpholinylcarbonyl)-2-[(phenylmethyl)oxy]-N-3-pyridinylbenzamide], the IC50 in test [1] (setting [4]) is no more than 0.1 µM; in test [1] (setting [6]), 0.0794 µM; in test [2] (setting [5]), no more than 20 µM; in test [2] (setting [7]), 7.94 µM.
As for `NCCOCCOc1ccc(OCc2ccccc2)c(C(=O)Nc2cccnc2)c1` [Example 49, 5-({2-[(2-Aminoethyl)oxy]ethyl}oxy)-2-[(phenylmethyl)oxy]-N-3-pyridinylbenzamide], the IC50 in test [1] (setting [4]) was no more than 0.01 µM; in test [2] (setting [5]) it was no more than 20 µM.
Consider `O=C(O)Cc1cccc(NC(=O)c2cc(Cl)ccc2OCc2ccccc2)c1` [Example 25, {3-[({5-Chloro-2-[(phenylmethyl)oxy]phenyl}carbonyl)amino]phenyl}acetic acid], for which the IC50 in test [3] was no more than 7.94 µM.
For `Cn1cc(-c2ccc(OCc3ccccc3C#N)c(C(=O)Nc3cccnc3)c2)cn1` [Example 113, 2-{[(2-Cyanophenyl)methyl]oxy}-5-(1-methyl-1H-pyrazol-4-yl)-N-3-pyridinylbenzamide], the IC50 in test [1] (setting [4]) is no more than 0.1 µM; in test [2] (setting [5]), no more than 20 µM.
Regarding `O=C(Nc1cccnc1F)c1cc(C(=O)N2CCOCC2)ccc1OCc1ccc(F)cc1F` [Example 125, 2-{[(2,4-Difluorophenyl)methyl]oxy)-N-(2-fluoro-3-pyridinyl)-5-(4-morpholinylcarbonyl)benzamide], the results for the IC50 in test [1] (setting [4]) and in test [2] (setting [5]) were no more than 0.1 µM and no more than 20 µM, respectively.
For `O=C(Nc1cccnc1)c1cc(OC[C@H]2CCCN2)ccc1OCc1ccccc1` [Example 44, 2-[(Phenylmethyl)oxy]-N-3-pyridinyl-5-{[(2R)-2-pyrrolidinylmethyl]oxy}benzamide], in that order: no more than 0.01 µM and no more than 20 µM.
Turning to `Cn1nccc1-c1ccc(OCc2ccc(F)cc2)c(C(=O)Nc2cccnc2)c1` [Example 95, 2-{[(4-Fluorophenyl)methyl]oxy}-5-(1-methyl-1H-pyrazol-5-yl)-N-3-pyridinylbenzamide], the IC50 in test [1] (setting [4]) is no more than 0.1 µM; in test [2] (setting [5]), no more than 20 µM.
`O=C(Nc1ccnnc1)c1cc(-c2ccncc2)ccc1OCc1ccc(F)c(F)c1` [Example 106, 2-([(3,4-Difluorophenyl)methyl]oxy)-N-4-pyridazinyl-5-(4-pyridinyl)benzamide]: the figures for the IC50 in test [1] (setting [4]) and in test [2] (setting [5]) were no more than 0.1 µM and no more than 20 µM, respectively.
On to `COC(=O)NCc1ccc(OCc2ccc(F)cc2)c(C(=O)Nc2cccnc2)c1` [Example 118, Methyl ({4-{[(4-fluorophenyl)methyl]oxy}-3-[(3-pyridinylamino)carbonyl]phenyl}methyl)carbamate], for which the IC50 in test [1] (setting [4]) was no more than 0.01 µM; in test [2] (setting [5]), no more than 20 µM.
Take `Cn1cc(-c2ccc(OCc3ccc(F)cc3)c(C(=O)Nc3cnoc3)c2)cn1` [Example 134, 2-{[(4-Fluorophenyl)methyl]oxy}-N-4-isoxazolyl-5-(1-methyl-1H-pyrazol-4-yl)benzamide]: the values for the IC50 in test [1] (setting [4]) and in test [2] (setting [5]) were no more than 0.1 µM and no more than 20 µM, respectively.
Turning to `O=C(Nc1cncc(F)c1)c1cc(-c2ccncc2)ccc1OCc1ccccc1` [Example 102, N-(5-Fluoro-3-pyridinyl)-2-[(phenylmethyl)oxy]-5-(4-pyridinyl)benzamide], the IC50 was no more than 0.1 µM in test [1] (setting [4]) and greater than 25.1 µM in test [2] (setting [5]).
Take `CCOC(=O)CCc1ccc(OCc2ccccc2)c(C(=O)Nc2cccnc2)c1` [Example 87, Ethyl 3-{-4-[(phenylmethyl)oxy]-3-[(3-pyridinylamino)carbonyl]phenyl}propanoate]: the IC50 in test [1] (setting [4]) is no more than 0.01 µM; in test [2] (setting [5]), no more than 20 µM.
As to `O=C(Nc1cccnc1)c1cc(Br)ccc1OCc1cccc(F)c1` [Example 57, 5-Bromo-2-{[(3-fluorophenyl)methyl]oxy}-N-3-pyridinyl benzamide], the values for the IC50 in test [1] (setting [4]) and in test [2] (setting [5]) were no more than 0.1 µM and greater than 25.1 µM, respectively.
